How the values were obtained:
[1] = tested on: MDA-MB-231 cells; test: Cell proliferation assay (CellTiter-Glo), MDA-MB-231; format: cell-based; conditions: Homo sapiens, MDA-MB-231, 72 h, 72 h treatment, Celltiter-Glo luminescence
Procedure, shortened: (§1)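 MDA-MB-231 (RPMI-1640/10% FBS) and EVSA-T (MEM/10% FBS) cells, 10000 cells/well, exposed 72 h to compound at […]. Viability read by CellTiter-Glo luminescence after 15 min at room temperature. IC50 from control-normalised curve fitting.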

[2] = tested on: EVSA-T cells; test: Cell proliferation assay (CellTiter-Glo), EVSA-T; format: cell-based; conditions: Homo sapiens, EVSA-T, 72 h, 72 h treatment, Celltiter-Glo luminescence
Procedure, shortened: as §1

Compound	IC50 [1] [µM]	IC50 [2] [µM]
COCCn1nc2c(Cc3ccc(F)cc3)cc3c(n2c1=O)C(C)(C)CN3C(=O)CN1C[C@@H](C)NC[C@@H]1CN1CCOC[C@H]1C [Compound 227, 4-(4-fluorobenzyl)-2-(2-methoxyethyl)-8,8-dimethyl-6-(2-((2R,5R)-5-methyl-2-(((R)-3-methylmorpholino)methyl)piperazin-1-yl)acetyl)-2,6,7,8-tetrahydro-1H-pyrrolo[2,3-e][1,2,4]triazolo[4,3-a]pyridin-1-one]	0.082	0.002
C[C@@H]1CN(CC(=O)N2CC(C)(C)c3c2cc(Cc2ccc(F)cc2)c2ncnn32)[C@@H](CN2CCN(CC(F)(F)F)C[C@H]2C)CN1 [Compound 63, 1-(4-(4-fluorobenzyl)-8,8-dimethyl-7,8-dihydro-6H-pyrrolo[2,3-e][1,2,4]triazolo[1,5-a]pyridin-6-yl)-2-((2R,5R)-5-methyl-2-(((R)-2-methyl-4-(2,2,2-trifluoroethyl)piperazin-1-yl)methyl)piperazin-1-yl)ethan-1-one]	0.028	0.003
C[C@@H]1CN(CC(=O)N2CC(C)(C)c3c2cc(Cc2ccc(F)cc2)c2nc(C4CC4)nn32)[C@@H](CN2CCOC[C@H]2C)CN1 [Compound 165, 1-(2-cyclopropyl-4-(4-fluorobenzyl)-8,8-dimethyl-7,8-dihydro-6H-pyrrolo[2,3-e][1,2,4]triazolo[1,5-a]pyridin-6-yl)-2-((2R,5R)-5-methyl-2-(((R)-3-methylmorpholino)methyl)piperazin-1-yl)ethan-1-one]	0.021	0.004
CCNC(=O)c1nc2c(Cc3ccc(F)cc3)cc3c(n2n1)C(C)(C)CN3C(=O)CN1C[C@@H](C)NC[C@@H]1CN1CCOC[C@H]1C [Compound 259, N-ethyl-4-(4-fluorobenzyl)-8,8-dimethyl-6-(2-((2R,5R)-5-methyl-2-(((R)-3-methylmorpholino)methyl)piperazin-1-yl)acetyl)-7,8-dihydro-6H-pyrrolo[2,3-e][1,2,4]triazolo[1,5-a]pyridine-2-carboxamide]	0.087	0.0158
C[C@@H]1CN(CC(=O)N2CC(C)(C)c3c2cc(Cc2ccc(F)cc2)c2nn(C4CC(O)C4)c(=O)n32)[C@@H](CN2CCOC[C@H]2C)CN1 (stereo partly drawn) [Compound 271, 4-(4-fluorobenzyl)-2-(3-hydroxycyclobutyl)-8,8-dimethyl-6-(2-((2R,5R)-5-methyl-2-(((R)-3-methylmorpholino)methyl)piperazin-1-yl)acetyl)-2,6,7,8-tetrahydro-1H-pyrrolo[2,3-e][1,2,4]triazolo[4,3-a]pyridin-1-one]	0.022	0.0022
C[C@@H]1CN(CC(=O)N2CC(C)(C)c3c2cc(Cc2ccc(F)cc2)c2nc(C(F)(F)F)cn32)[C@@H](CN2CCOCC23CC3)CN1 [Compound 147, 2-((2R,5R)-2-((7-oxa-4-azaspiro[2.5]octan-4-yl)methyl)-5-methylpiperazin-1-yl)-1-(4-(4-fluorobenzyl)-8,8-dimethyl-2-(trifluoromethyl)-7,8-dihydro-6H-imidazo[1,2-a]pyrrolo[2,3-e]pyridin-6-yl)ethan-1-one]	0.12	0.01
C[C@@H]1CN(CC(=O)N2CC(C)(C)c3c2cc(Cc2ccc(F)cc2)c2nc(-c4cncnc4)nn32)[C@@H](CN2CCOC[C@H]2C)CN1 [Compound 184, 1-(4-(4-fluorobenzyl)-8,8-dimethyl-2-(pyrimidin-5-yl)-7,8-dihydro-6H-pyrrolo[2,3-e][1,2,4]triazolo[1,5-a]pyridin-6-yl)-2-((2R,5R)-5-methyl-2-(((R)-3-methylmorpholino)methyl)piperazin-1-yl)ethan-1-one]	0.017	0.006
C[C@@H]1CN(CC(=O)N2CC(C)(C)c3c2cc(Cc2ccc(F)cc2)c2cnnn32)[C@@H](CN2CCOC[C@H]2C)CN1 [Compound 128, 1-(4-(4-fluorobenzyl)-8,8-dimethyl-7,8-dihydro-6H-pyrrolo[2,3-e][1,2,3]triazolo[1,5-a]pyridin-6-yl)-2-((2R,5R)-5-methyl-2-(((R)-3-methylmorpholino)methyl)piperazin-1-yl)ethan-1-one]	0.012	0.002
C[C@@H]1CN(CC(=O)N2CC(C)(C)c3c2cc(Cc2ccc(F)cc2)c2nn(C)c(=O)n32)[C@@H](CN2CCOC[C@H]2C)CN1 [Compound 135, 4-(4-fluorobenzyl)-2,8,8-trimethyl-6-(2-((2R,5R)-5-methyl-2-(((R)-3-methylmorpholino)methyl)piperazin-1-yl)acetyl)-2,6,7,8-tetrahydro-1H-pyrrolo[2,3-e][1,2,4]triazolo[4,3-a]pyridin-1-one]	0.04	0.004
C[C@@H]1CN(CC(=O)N2CC(C)(C)c3c2cc(Cc2ccc(F)cc2)c2nnc(C#N)n32)[C@@H](CN2CCOC[C@H]2C)CN1 [Compound 153, 4-(4-fluorobenzyl)-8,8-dimethyl-6-(2-((2R,5R)-5-methyl-2-(((R)-3-methylmorpholino)methyl)piperazin-1-yl)acetyl)-7,8-dihydro-6H-pyrrolo[2,3-e][1,2,4]triazolo[4,3-a]pyridine-1-carbonitrile]	0.038	0.005
C[C@@H]1CN(CC(=O)N2CC(C)(C)c3c2cc(Cc2ccc(F)cc2)c2nn(CC(C)(C)O)c(=O)n32)[C@@H](CN2CCOCC23CC3)CN1 [Compound 278, 6-(2-((2R,5R)-2-((7-oxa-4-azaspiro[2.5]octan-4-yl)methyl)-5-methylpiperazin-1-yl)acetyl)-4-(4-fluorobenzyl)-2-(2-hydroxy-2-methylpropyl)-8,8-dimethyl-2,6,7,8-tetrahydro-1H-pyrrolo[2,3-e][1,2,4]triazolo[4,3-a]pyridin-1-one]	0.039	0.0097
C[C@@H]1CN(CC(=O)N2CC(C)(C)c3c2cc(Cc2ccc(F)cc2)c2nc(C#N)nn32)[C@@H](CN2CCOC[C@H]2C)CN1 [Compound 32, 4-(4-fluorobenzyl)-8,8-dimethyl-6-(2-((2R,5R)-5-methyl-2-(((R)-3-methylmorpholino)methyl)piperazin-1-yl)acetyl)-7,8-dihydro-6H-pyrrolo[2,3-e][1,2,4]triazolo[1,5-a]pyridine-2-carbonitrile]	0.06	0.02
C[C@@H]1CN(CC(=O)N2CC(C)(C)c3c2cc(Cc2ccc(F)cc2)c2nnc(C4CC4)n32)[C@@H](CN2CCOC[C@H]2C)CN1 [Example 12, 1-(1-cyclopropyl-4-(4-fluorobenzyl)-8,8-dimethyl-7,8-dihydro-6H-pyrrolo[2,3-e][1,2,4]triazolo[4,3-a]pyridin-6-yl)-2-((2R,5R)-5-methyl-2-(((R)-3-methylmorpholino)methyl)piperazin-1-yl)ethan-1-one]	0.19	0.012
CC(c1ccc(F)cc1)c1cc2c(n3ncnc13)C(C)(C)CN2C(=O)CN1C[C@@H](C)NC[C@@H]1CN1CCOC[C@H]1C (stereo partly drawn) [Compound 45, 1-(4-(1-(4-fluorophenyl)ethyl)-8,8-dimethyl-7,8-dihydro-6H-pyrrolo[2,3-e][1,2,4]triazolo[1,5-a]pyridin-6-yl)-2-((2R,5R)-5-methyl-2-(((R)-3-methylmorpholino)methyl)piperazin-1-yl)ethan-1-one]	0.18	0.04
C[C@@H]1CN(CC(=O)N2CC(C)(C)c3c2cc(Cc2ccc(F)cc2)c2nc(C4(O)CC4)nn32)[C@@H](CN2CCOC[C@H]2C)CN1 [Compound 244, 1-(4-(4-fluorobenzyl)-2-(1-hydroxycyclopropyl)-8,8-dimethyl-7,8-dihydro-6H-pyrrolo[2,3-e][1,2,4]triazolo[1,5-a]pyridin-6-yl)-2-((2R,5R)-5-methyl-2-(((R)-3-methylmorpholino)methyl)piperazin-1-yl)ethan-1-one]	0.003	0.0046
C[C@@H]1CN(CC(=O)N2CC(C)(C)c3c2cc(Cc2ccc(F)cc2)c2nc(C#N)cn32)[C@@H](CN2CCOC[C@H]2C)CN1 [Example 21, 4-(4-fluorobenzyl)-8,8-dimethyl-6-(2-((2R,5R)-5-methyl-2-(((R)-3-methylmorpholino)methyl)piperazin-1-yl)acetyl)-7,8-dihydro-6H-imidazo[1,2-a]pyrrolo[2,3-e]pyridine-2-carbonitrile]	0.023	0.005
C[C@@H]1CN(CC(=O)N2CC(C)(C)c3c2cc(Cc2ccc(F)cc2)c2nc(N4C[C@@H](O)[C@@H](O)C4)nn32)[C@@H](CN2CCOC[C@H]2C)CN1 [Compound 229, 1-(2-((3R,4S)-3,4-dihydroxypyrrolidin-1-yl)-4-(4-fluorobenzyl)-8,8-dimethyl-7,8-dihydro-6H-pyrrolo[2,3-e][1,2,4]triazolo[1,5-a]pyridin-6-yl)-2-((2R,5R)-5-methyl-2-(((R)-3-methylmorpholino)methyl)piperazin-1-yl)ethan-1-one]	0.076	0.007
C[C@@H]1CN(CC(=O)N2CC(C)(C)c3c2cc(Cc2ccc(F)cc2N)c2ncnn32)[C@@H](CN2CCOC[C@H]2C)CN1 [Compound 129, 1-(4-(2-amino-4-fluorobenzyl)-8,8-dimethyl-7,8-dihydro-6H-pyrrolo[2,3-e][1,2,4]triazolo[1,5-a]pyridin-6-yl)-2-((2R,5R)-5-methyl-2-(((R)-3-methylmorpholino)methyl)piperazin-1-yl)ethan-1-one]	0.046	0.011
CC(C)c1nnc2c(Cc3ccc(F)cc3)cc3c(n12)C(C)(C)CN3C(=O)CN1C[C@@H](C)NC[C@@H]1CN1CCOC[C@H]1C [Example 11, 1-(4-(4-fluorobenzyl)-1-isopropyl-8,8-dimethyl-7,8-dihydro-6H-pyrrolo[2,3-e][1,2,4]triazolo[4,3-a]pyridin-6-yl)-2-((2R,5R)-5-methyl-2-(((R)-3-methylmorpholino)methyl)piperazin-1-yl)ethan-1-one]	0.17	0.01
